Among the data in patent US20160052898A1, “NOVEL COMPOUNDS” (BAYER PHARMA AKTIENGESELLSCHAFT, priority 2013, published 2016) are IC50 values, retold here.

Some results are limits rather than exact numbers.

Type in all cases: cell-based
For one test, the system named is wildtype Wnt pathway. Briefly: HEK293 Super TopFlash cellular reporter assay, Wnt-3a stimulated (wildtype Wnt pathway). The following applies: Homo sapiens; HEK293 TOP reporter cells, EC50 concentration of recombinant Wnt-3a, 16 hours incubation; read-out: HEK TOP OncoFlash IC50. The gist of the method:
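Stable HEK293 Super TopFlash and FOP reporter cells stimulated with recombinant human Wnt-3a (2500–5 ng/ml, two-fold steps). Compounds tested 50 μM to 15 nM in 3.16-fold steps in CAFTY buffer pH 7.4 with 2 mM Ca2+ and 0.01% BSA; luciferase read-out.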

Test [1] deals with constitutive active colorectal cancer cell (CRC) Wnt pathway. Briefly: HCT116 Super TopFlash cellular reporter assay (constitutive active Wnt pathway). The settings on record: Homo sapiens, HCT-116, 36 h, HCT116 TOP reporter cells, luciferase expression, 36 hours incubation, 50 μM to 15 nM. Put shortly:
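HCT116 cells (β-catenin ΔS45) stably carrying Super TopFlash, with a parallel FOP-control line, were plated 24 h ahead. They were exposed 36 h at 37 °C, 5% CO2 to compound from a 50 μM–15 nM, 3.16-fold pre-dilution series in CAFTY buffer (pH 7.4, 2 mM Ca2+, 0.01% BSA). Wnt signalling was read as luciferase luminescence.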

The subject of test [2] is HCT116 FOP control reporter cell line. Briefly: HCT116 FOP control vector reporter assay (non-functional TCF elements). The following applies: Homo sapiens, HCT-116, 36 h, HCT116 FOP control reporter cells, luciferase expression, 36 hours incubation, 50 μM to 15 nM; read-out: HCT116 FOPFlash IC50. The gist of the method: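 Stable HCT116 line carrying the non-functional FOP luciferase construct, 10000 cells/well plated 24 hrs before. Compounds 50 μM to 15 nM (3.16-fold steps) in CAFTY buffer pH 7.4 with 2 mM Ca2+, 36 hours at 37° C; luciferase luminescence read.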
(A reporter such as luciferase makes a cellular process visible.)

Test [3] concerns HEK293 FOP control reporter cell line. Nature of the test: HEK293 FOP control vector reporter assay. The following applies: Homo sapiens; HEK293 FOP control reporter cells, EC50 concentration of recombinant Wnt-3a, 16 hours incubation; read-out: HEK FOP IC50. The gist of the method: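 Stable HEK293 cells carrying FOP control vector (non-functional TCF sites), 10000 cells/well plated 24 h before, stimulated with recombinant human Wnt-3a at 2500–5 ng/ml in two-fold steps. Compounds from 50 μM to 15 nM (3.16-fold) in CAFTY buffer pH 7.4 with 2 mM Ca2+, 0.01% BSA, run in parallel with TOP line; luciferase read-out.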

Consider `COc1ccc(C(=O)Nc2ccc(-c3ccccc3)cc2)cc1NC(=O)C1(N2CCOCC2)CC1` [Example 101, N-(biphenyl-4-yl)-4-methoxy-3-({[1-(morpholin-4-yl)cyclopropyl]carbonyl}amino)benzamide], for which the concentration for half-maximal inhibition (IC50) in the test on wildtype Wnt pathway is 11 nM; in test [1], 5.21 nM; in test [2], not below 50000 nM; in test [3], 17000 nM.
Regarding `CCNC(=O)c1ccc(C(=O)Nc2ccc(-c3ccccc3)cc2)cc1NC(=O)CN1CCOCC1` [Example 102, N^4-(biphenyl-4-yl)-N^1-ethyl-2-[(morpholin-4-ylacetyl)amino]terephthalamide], the IC50 in the test with wildtype Wnt pathway stood at 41 nM; in test [1] it was 45.9 nM; in test [2] it was 28900 nM; in test [3], 5800 nM.
`COCCNC(=O)c1ccc(C(=O)Nc2ccc(-c3ccccc3)cc2)cc1NC(=O)CN1CCOCC1` [Example 106, N^4-(biphenyl-4-yl)-N^1-(2-methoxyethyl)-2-[(morpholin-4-ylacetyl)amino]terephthalamide]: the IC50 was 76 nM in the test on wildtype Wnt pathway, 17.2 nM in test [1], not below 50000 nM in test [2] and not below 50000 nM in test [3].
In the case of `O=C(CN1CCOCC1)Nc1cc(C(=O)Nc2ccc(-c3ccccc3)cc2)ccc1C(=O)NC1CC1` [Example 107, N^4-(biphenyl-4-yl)-N^1-cyclopropyl-2-[(morpholin-4-ylacetyl)amino]terephthalamide], the IC50 was determined as 310 nM in the test with wildtype Wnt pathway, 38.5 nM in test [1], 21000 nM in test [2] and 36000 nM in test [3].
Regarding `COCCCNC(=O)c1ccc(C(=O)Nc2ccc(-c3ccccc3)cc2)cc1NC(=O)CN1CCOCC1` [Example 108, N^4-(biphenyl-4-yl)-N^1-(3-methoxypropyl)-2-[(morpholin-4-ylacetyl)amino]terephthalamide], the IC50 with wildtype Wnt pathway was 15.6 nM; in test [1], 44.5 nM; in test [2], 43500 nM; in test [3] it was not below 50000 nM.
For `CSc1ccc(C(=O)Nc2ccc(-c3ccccc3)cc2)cc1NC(=O)CN1CCOCC1` [Example 109, N-(biphenyl-4-yl)-4-(methylsulfanyl)-3-[(morpholin-4-ylacetyl)amino]benzamide], in that order: 280 nM, 48.8 nM, not below 50000 nM and not below 50000 nM.
Consider `O=C(CN1CCOCC1)Nc1cc(C(=O)Nc2ccc(-c3ccccc3)cc2)ccc1OC1CC1` [Example 112, N-(biphenyl-4-yl)-4-(cyclopropyloxy)-3-[(morpholin-4-ylacetyl)amino]benzamide], for which the IC50 is 77 nM in the test with wildtype Wnt pathway, 83.2 nM in test [1], not below 50000 nM in test [2] and not below 50000 nM in test [3].
As to `CN1CCN(C2(C(=O)Nc3cc(C(=O)Nc4ccc(-c5ccccc5)cc4)ccc3OC3CC3)CC2)CC1` [Example 114, N-(biphenyl-4-yl)-4-(cyclopropyloxy)-3-({[1-(4-methylpiperazin-1-yl)cyclopropyl]carbonyl}amino)benzamide], the IC50 in the test with wildtype Wnt pathway is 36 nM; in test [1] it was 15.8 nM; in test [2], 21000 nM; in test [3] it was not below 50000 nM.
For the molecule `O=C(Nc1ccc(-c2ccccc2)cc1)c1ccc(OC2CC2)c(NC(=O)C2(N3CCN(C4CC4)CC3)CC2)c1` [Example 115, N-(biphenyl-4-yl)-4-(cyclopropyloxy)-3-({[1-(4-cyclopropylpiperazin-1-yl)cyclopropyl]carbonyl}amino)benzamide], the IC50 was 170 nM with wildtype Wnt pathway, 36.2 nM in test [1], not below 50000 nM in test [2] and not below 50000 nM in test [3].
With `CS(=O)(=O)Cc1ccc(C(=O)Nc2ccc(-c3ccccc3)cc2)cc1NC(=O)CN1CCOCC1` [Example 124, N-(biphenyl-4-yl)-4-[(methylsulfonyl)methyl]-3-[(morpholin-4-ylacetyl)amino]benzamide], the half-inhibitory concentration (IC50) in the test on wildtype Wnt pathway is 110 nM; in test [1], 34 nM; in test [2], not below 50000 nM; in test [3] it was 11000 nM.
Take `O=C(CN1CCOCC1)Nc1cc(C(=O)Nc2ccc(-c3ccccc3)cc2)ccc1OCC(F)(F)F` [Example 127, N-(biphenyl-4-yl)-3-[(morpholin-4-ylacetyl)amino]-4-(2,2,2-trifluoroethoxy)benzamide]: the IC50 is 110 nM in the test with wildtype Wnt pathway, 44.5 nM in test [1], not below 50000 nM in test [2] and 31000 nM in test [3].

Usually IC50 stands for the point on the concentration scale where inhibition reaches its midpoint.
